Assay results: patent US8039430B2 (University of Wollongong, priority 2005, dated 2011)
Values after ≈ are worked out from the molar mass of the structure shown. Like-named read-outs stand apart in the source and are kept apart here.

How the values were obtained:
E.f987 = experiment: Antibacterial screening (MIC) of compounds of Example 2, E.f987; assay type: cell-based, Enterococcus faecium; conditions: for Antibacterial activity μg/mL, E.f987: Example 2 compounds, enterococci strain E.f987
E.f449 = experiment: Antibacterial screening (MIC) of compounds of Example 2, E.f449; assay type: cell-based, Enterococcus faecium
Experimental: (§1) • All assays used the Staphylococcus aureus strain ATCC 6538P. • Assays described in Chapter 5 additionally used the vancomycin-resistant enterococci and vancomycin-sensitive enterococci strains Ef243, Ef449, Ef820 and Ef487. Culture Media • Mueller-Hinton Broth Medium (MHB): MHB (Oxoid CM405) was prepared with final concentrations of […] MgCl2 and 2 μg/mL CaCl2. Culture medium was pre-warmed for approximately 2-3 h at 37° C. before use. • Mueller-Hinton Agar Medium (MHA): MMB containing 1.5% Agar (Merck Agar 1.01614). Maintenance of Bacteria • From a thawed cryovial, the bacteria was streaked onto MHA and the plate incubated overnight at 37° C. • From this plate, 10 cryovials were prepared by looping several colonies into 0.5 mL of 20% glycerol solution. The cryovials were immediately stored at −140° C. Preparation of Seed Cultures • A cryovial was removed from −140° C. storage and thawed at room temperature. • An MHA plate was streaked with a loopful of bacterial suspension and incubated overnight at 37° C. to create a parent plate (P1). • A daughter plate (D1) was streaked from the parent plate and incubated overnight at 37° C. […] The second parent plate (P2) was used to generate two additional daughter plates using the procedure outlined above before being discarded. • Cryovials were used twice to prepare parent plates (P1 and P2) before being discarded. […] A vancomycin control set (triplicate) and a compound negative control set (triplicate) were also included on each plate (FIG. 1). • The inoculated culture medium was incubated at 37° C. for 30 min, with shaking at 130 rpm. • Using a multichannel pipette, the contents of the first row were mixed before 50 μL was transferred to the second row. The pipette tips were changed and the process repeated by 50 μL of the mixed broth solutions in the second row being transferred to the third row. This process was repeated until the last row contained either the diluted test compound or a control (vancomycin or compound-negative). […] Antibacterial Testing of Compounds of Example 2 Introduction
(§2) The specific testing procedures and protocols are outlined in the section “Antibacterial Screening Methodology for the Compounds of Example 2”.
(§3) Vancomycin was used as the standard/control.

E.f820 = experiment: Antibacterial screening (MIC) of compounds of Example 2, E.f820; assay type: cell-based, Enterrococci faecium; conditions: for Antibacterial activity μg/mL, E.f820: Example 2 compounds, fully vancomycin-resistant strain E.f820
Experimental: as §1, §2, §3

[1] = tested on: Staphylococcus aureus strain ATCC 6538P; experiment: Antibacterial screening (MIC) of compounds of Example 2, S. aureus, Mueller-Hinton broth; assay type: cell-based; conditions: for MIC: Staphylococcus aureus, ATCC6538P
Experimental: Antibacterial Screening Methodology for Compounds of Example 2
as §1, §2
The antibacterial activity results are measured by minimum inhibitory concentration (MIC), which is the lowest concentration of compound necessary to prevent bacterial growth.

HIV integrase enzyme = molecular target: T1, HIV integrase enzyme (Human immunodeficiency virus type 1 group M subtype B, UniProt P04585); experiment: Cross testing of antibacterial compounds for ability to inhibit the HIV integrase enzyme; assay type: biochemical; conditions: Example 2 compounds; compared with lead 88
T1 construct: against the HIV integrase enzyme
Experimental: The results for the screening of the four target molecules 165-168 against the HIV integrase enzyme yielded some encouraging results which supported the proposed mechanism of binding in the active binding trench of the HIV integrase enzyme. The testing procedure for the four target compounds differed from the original screening protocols employed. The original screening measured inhibition against the 3′ processing function of the enzyme at the fixed concentration of 50 μg/mL, whereas the four target molecules were tested in an assay adapted from a literature procedure,^107 which measures inhibition against the 3′ strand transfer function of the enzyme. This allows a result to be obtained as an inhibition constant (IC50) concentration, which is the standard measurement of inhibition within the literature. Along with the four target molecules, 88 was also re-tested in the 3′ strand transfer assay to determine the IC50 for direct comparison with the literature.
After these compounds and the computer modelling studies had become established, all compounds that were sent for screening in the antibacterial assay were then also cross tested for their ability to inhibit the HIV integrase enzyme.

E.f243 = experiment: Antibacterial screening (MIC) of compounds of Example 2, E.f243; assay type: cell-based, Enterococcus faecium
Experimental: as §1, §2, §3

[2] = tested on: Staphylococcus aureus (ATCC 6538P); experiment: Antibacterial assay (MIC), Staphylococcus aureus ATCC 6538P, Luria Broth, Example 1; assay type: cell-based; conditions: Staphylococcus aureus, ATCC6538P, 24 h, read-out: Sa (minimum inhibitory concentration)
Outline: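 Broth microdilution in Luria Broth, 2-fold series from 125 to 0.98 ug/ml in triplicate, with 1/1000-diluted overnight culture; up to 2.5% DMSO. Incubated 24 hrs at 37° C with slow rotation; MIC read as lowest concentration giving a clear well without bacterial pellet.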

[3] = tested on: #987 E. faecium van B ST39; experiment: Antibacterial assay (MIC), VRE strain #987, Enterococossel Broth, Example 1; assay type: cell-based, Enterococcus faecium; conditions: Enterococcus faecium, VRE, 24 h, read-out: 987 (minimum inhibitory concentration)
Outline: (§4)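 Broth microdilution MIC vs E. faecium VRE strains grown in Enterococossel broth, inoculum 1/1000 of overnight culture; compounds tested in triplicate at 125–0.98 ug/ml (2-fold), top-well DMSO 2.5%. Plates incubated 24 h at 37 °C; MIC read as clear well, no pellet and no black colouring of medium.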

[4] = tested on: #820 E. faecium van A ST17; experiment: Antibacterial assay (MIC), VRE strain #820, Enterococossel Broth, Example 1; assay type: cell-based, Enterococcus faecium; conditions: Enterococcus faecium, VRE, 24 h, read-out: 820 (minimum inhibitory concentration)
Outline: as §4

[5] = tested on: #449 E. faecium van B ST17; experiment: Antibacterial assay (MIC), VRE strain #449, Enterococossel Broth, Example 1; assay type: cell-based, Enterococcus faecium; conditions: Enterococcus faecium, VRE, 24 h, read-out: 449 (minimum inhibitory concentration)
Outline: (§5)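 Broth microdilution in Enterococossel Broth, triplicate twofold dilutions from 125 to 0.98 ug/ml, inoculated with 1/1000-diluted overnight E. faecium van B culture. Incubated 24 h at 37° C with slow rotation. MIC read as lowest concentration without pellet or black medium; first-row DMSO 2.5%.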

[6] = tested on: E. faecium (VRE, vanA genes); conditions: typical for VRE E. faecium in hospitals; cited from earlier work
[7] = tested on: #243 E. faecium van B ST17; experiment: Antibacterial assay (MIC), VRE strain #243, Enterococossel Broth, Example 1; assay type: cell-based, Enterococcus faecium; conditions: Enterococcus faecium, VRE, 24 h, read-out: 243 (minimum inhibitory concentration)
Outline: as §5

MRSA isolates = conditions: 43 MRSA isolates from adults with community respiratory infections; cited from earlier work
[8] = tested on: strains of MRSA which have intermediate resistance to glycopeptides; conditions: cited from earlier work
S. aureus = conditions: when penicillin was introduced in mid-1940s; cited from earlier work
[9] = tested on: E. faecium isolate (VanD-type); conditions: VanD-type E. faecium isolate from the United States, constitutively resistant; cited from earlier work

## C=CCOc1ccc2ccccc2c1-c1c(OCC(=O)N[C@H](CCCNC(=N)N)C(=O)Nc2cccc(C(=O)NO)c2)ccc2ccccc12.Cl
other
  melting point: 158 to 160 °C

## CCCOc1ccc2ccccc2c1-c1c(OCC(=O)N[C@H](CCCN)C(=O)Nc2cccc(C(=O)NO)c2)ccc2ccccc12.Cl [Compound 163]
E.f987
  Antibacterial activity μg/mL, E.f987: >125 µg/mL
E.f449; Example 2 compounds, enterococci strain E.f449
  Antibacterial activity μg/mL, E.f449: >125 µg/mL
E.f820
  Antibacterial activity μg/mL, E.f820: >125 µg/mL
[1]; Example 2 compounds (linear cationic peptides), S. aureus, vancomycin-susceptible strain
  Antibacterial activity μg/mL, S.a: 15.6 µg/mL
HIV integrase enzyme
  ability to inhibit the HIV integrase enzyme (in words): almost as active as the original lead 88
E.f243; Example 2 compounds, enterococci strain E.f243
  Antibacterial activity μg/mL, E.f243: >125 µg/mL

## CN[C@H](CC(C)C)C(=O)N[C@H]1C(=O)N[C@@H](CC(N)=O)C(=O)N[C@H]2C(=O)N[C@H]3C(=O)N[C@H](C(=O)N[C@H](C(=O)O)c4cc(O)cc(O)c4-c4cc3ccc4O)[C@H](O)c3ccc(c(Cl)c3)Oc3cc2cc(c3O[C@@H]2O[C@H](CO)[C@@H](O)[C@H](O)[C@H]2O[C@H]2C[C@](C)(N)[C@H](O)[C@H](C)O2)Oc2ccc(cc2Cl)[C@H]1O [Vancomycin, vancomycin, reference compound]
[2]
  MIC: 0.99 to 15.6 µg/mL (≈ 0.683 to 10.8 µM)
E.f987; Enterococcus faecium, read-out: Antibacterial activity μg/mL, E.f987
  MIC: < 0.98 µg/mL
E.f987
  Antibacterial activity μg/mL, E.f987: <0.98 µg/mL
E.f449; Enterococcus faecium, read-out: Antibacterial activity μg/mL, E.f449
  MIC: 62.5 µg/mL (≈ 43.1 µM)
[3]
  MIC: < 0.98 µg/mL
[4]
  MIC: > 62.6 µg/mL
[5]
  MIC: 15.7 to 62.5 µg/mL (≈ 10.8 to 43.1 µM)
[6]
  minimum inhibitory concentrations (MICs): > 128 µg/mL
E.f820
  Antibacterial activity μg/mL, E.f820: >125 µg/mL
E.f820; read-out: Antibacterial activity μg/mL, E.f820
  MIC: > 125 µg/mL
[7]
  MIC: < 0.98 µg/mL
[1]; 18 h, read-out: Antibacterial activity (MIC μg/mL)
  MIC: 1.25 to 2.5 µg/mL (≈ 0.863 to 1.73 µM)
[1]; read-out: Antibacterial activity μg/mL, S.a
  MIC: 1.95 µg/mL (≈ 1.35 µM)
MRSA isolates
  susceptibility rates: 100%
E.f243; Enterococcus faecium, read-out: Antibacterial activity μg/mL, E.f243
  MIC: 1.95 µg/mL (≈ 1.35 µM)

## CC[C@H]1OC(=O)[C@H](C)[C@@H](O[C@H]2C[C@@](C)(OC)[C@@H](O)[C@H](C)O2)[C@H](C)[C@@H](O[C@@H]2O[C@H](C)C[C@H](N(C)C)[C@H]2O)[C@](C)(O)C[C@@H](C)C(=O)[C@H](C)[C@@H](O)[C@]1(C)O [erythromycin]
MRSA isolates
  susceptibility rates: 12%

## Oc1cc(Cl)ccc1Oc1ccc(Cl)cc1Cl [triclosan]
[8]; MRSA with intermediate resistance to glycopeptides, decreased susceptibility to biocides
  minimal bactericidal concns. (MBCs), increased value: 3.12 mg 1-1
[8]; value from which the MBC increased
  minimal bactericidal concns. (MBCs), starting value: 0.002 mg 1-1

## gentamicin
MRSA isolates
  susceptibility rates: 86%

## penicillin
S. aureus
  susceptible S. aureus: ~94%

## teicoplanin
[6]
  minimum inhibitory concentrations (MICs): > 16 µg/mL
[9]
  MIC: 4 µg/mL
